In the NIST ThermoML archive (doi:10.1016/j.fluid.2006.08.020):
± gives the expanded uncertainty stated by the source.

Tests used:
[1] = 298.1 K; 101.33 kPa; Liquid; Vibrating tube method
[2] = osmotic coefficient (dimensionless); mn = molality of the nth substance listed, in mol/kg; conditions: 298.15 K, Liquid, isopiestic method

CO [methanol]
Conditions	mass density [kg/m3]
[1]	787.5 ± 0.16

CO [methanol] + CC(=O)Nc1ccc(O)cc1
[2]
Conditions	osmotic coefficient
m1 = 0.0931	0.998 ± 0.001
m1 = 0.1398	1.001 ± 0.001
m1 = 0.2163	1.001 ± 0.001
m1 = 0.3514	1 ± 0.001
m1 = 0.5633	1.002 ± 0.001
m1 = 1.006	1.009 ± 0.001
m1 = 1.236	1.01 ± 0.001
m1 = 1.4	1.015 ± 0.001
m1 = 1.578	1.017 ± 0.001
m1 = 1.866	1.02 ± 0.001
m1 = 2.465	1.027 ± 0.002
m1 = 2.762	1.033 ± 0.002
m1 = 3.096	1.041 ± 0.003
m1 = 3.56	1.055 ± 0.004
m1 = 3.974	1.068 ± 0.004
m1 = 4.175	1.075 ± 0.005
m1 = 4.812	1.099 ± 0.006
m1 = 5.316	1.12 ± 0.008
m1 = 6.17	1.159 ± 0.01
m1 = 6.418	1.171 ± 0.011
m1 = 6.833	1.19 ± 0.012
m1 = 7.073	1.21 ± 0.013
